Our source for the IC50 values is patent US7135468B2, “Antibacterial compounds” (Abbott Laboratories, priority 2004, dated 2006).

SMILES strings stand for the structures.

The test addresses bacterial protein synthesis (S30 Streptococcus pneumoniae extract). The test can be described thus: Translation assay, firefly luciferase reporter system with S30 Streptococcus pneumoniae extract. The class given is biochemical, Streptococcus pneumoniae ATCC 46919. As to conditions: cell-free S30 extract from quinolone-susceptible S. pneumoniae ATCC 46919, luciferase mRNA; read-out: IC50, concentration causing 50% inhibition of bacterial protein synthesis. The method, then: Bacterial protein synthesis inhibitory activity of representative compounds of this invention having formula (I) and the commercially-available antibacterials in TABLE 2 was determined by translation assays using the firefly luciferase reporter system described by Murray et al., (2001), “Staphylococcus aureus Cell Extract Transcription-Translation Assay: Firefly Luciferase Reporter System for Evaluating Protein Translation Inhibitors,” Antimicrob. Agents Chemother. 45(6): 1900–1904, but replacing the Staphylococcus aureus S30 extract described therein with S30 Streptococcus pneumoniae extract from quinolone-succeptable Streptococcus pneumoniae ATCC 46919, and replacing plasmid coding for the luciferase gene with mRNA (encoding produced by in an in vitro environment transcription from the plasmid pAS10rbs3) which encoded the luciferase gene with an upstream Streptococcus pneumoniae promoter and Shine-Dalgarno site.
On the technique in general: A reporter such as luciferase makes a cellular process visible.

Consider `CC(=O)NC[C@H]1CN(c2ccc(N3CCOCC3)c(F)c2)C(=O)O1` [Linezolid], for which the IC50 was around 3 µM.
